The text below walks through data of US10208019B2, “GLP-1 receptor agonists and uses thereof” (Pfizer Inc., priority 2016, dated 2019).

Structures are written as SMILES. Like-named read-outs stand apart in the source and are kept apart here.

The target of assay [1] is human GLP-1R (Homo sapiens (Human), UniProt P43220, L260F). Put plainly: CHO GLP-1R Clone C6—Assay 2: HTRF cAMP cell-based functional agonist assay (low GLP-1R density). Conditions: for EC50: CHO GLP-1R Clone C6, cAMP HTRF, geometric mean; for Emax: read-out: Assay 2 Emax (%). A general note: Time-resolved FRET reads energy transfer from a long-lived donor to a nearby acceptor.
Procedure: GLP-1R-mediated agonist activity was determined with a cell-based functional assay utilizing an HTRF (Homogeneous Time-Resolved Fluorescence) cAMP detection kit (cAMP HI Range Assay Kit; Cis Bio cat #62AM6PEJ) that measures cAMP levels in the cell. The method is a competitive immunoassay between native cAMP produced by the cells and exogenous cAMP labeled with the dye d2. The tracer binding is visualized by a mAb anti-cAMP labeled with Cryptate. The specific signal (i.e. energy transfer) is inversely proportional to the concentration of cAMP in either a standard or an experimental sample.
The human GLP-1R coding sequence (NCBI Reference Sequence NP_002053.3, including naturally-occurring variant Leu260Phe) was subcloned into pcDNA5-FRT-TO and a clonal CHO cell line stably expressing a low receptor density was isolated using the Flp-In™ T-Rex™ System, as described by the manufacturer (ThermoFisher).
Cells were removed from cryopreservation, re-suspended in 40 mL of Dulbecco's Phosphate Buffered Saline (DPBS-Lonza Cat #17-512Q) and centrifuged at 800×g for 5 min at 22° C. The DPBS was aspirated, and the cell pellet was re-suspended in 10 mL of complete growth medium (DMEM:F12 1:1 Mixture with HEPES, L-Gln, 500 mL (DMEM/F12 Lonza Cat #12-719F), 10% heat inactivated fetal bovine serum (Gibco Cat #16140-071), 5 mL of 100× Pen-Strep (Gibco Cat #15140-122), 5 mL of 100× L-Glutamine (Gibco Cat #25030-081), 700 μg/mL Hygromycin (Invitrogen Cat #10687010) and 15 μg/mL Blasticidin (Gibco Cat #R21001). A 1 mL sample of the cell suspension in growth media was counted on a Becton Dickinson ViCell to determine cell viability and cell count per mL. The remaining cell suspension was then adjusted with growth media to deliver 1600 viable cells per well using a Matrix Combi Multidrop reagent dispenser, and the cells were dispensed into a white 384 well tissue culture treated assay plate (Corning 3570). The assay plate was then incubated for 48 h at 37° C. in a humidified environment (95% O2, 5% CO2)
Varying concentrations of each compound to be tested (in DMSO) were diluted in assay buffer [HBSS with Calcium/Magnesium (Lonza/BioWhittaker cat #10-527F)/0.1% BSA (Sigma Aldrich cat #A7409-1L)/20 mM HEPES (Lonza/BioWhittaker cat #17-737E)] containing 100 μM 3-isobutyl-1-methylxanthin (IBMX; Sigma cat #15879). The final DMSO concentration in the compound/assay buffer mixture is 1%.
After 48 h, the growth media was removed from the assay plate wells, and the cells were treated with 20 μL of the serially diluted compound in assay buffer for 30 min at 37° C. in a humidified environment (95% O2, 5% CO2). Following the 30 min incubation, 10 μL of labeled d2 cAMP and 10 μL of anti-cAMP antibody (both diluted 1:20 in cell lysis buffer; as described in the manufacturer's assay protocol) were added to each well of the assay plate. The plates were then incubated at room temperature and after 60 minutes, changes in the HTRF signal were read with an Envision 2104 multi-label plate reader using excitation of 330 nm and emissions of 615 and 665 nm. Raw data were converted to nM cAMP by interpolation from a cAMP standard curve (as described in the manufacturer's assay protocol) and the percent effect was determined relative to a saturating concentration of the full agonist GLP-1 (1 μM) included on each plate. EC50 determinations were made from agonist dose response curves analyzed with a curve fitting program using a 4-parameter logistic dose response equation.

For assay [2], the target named is human GLP-1R (Homo sapiens, UniProt P43220, G168S). Put plainly: CHO GLP-1R Clone H6—Assay 1: HTRF cAMP cell-based functional agonist assay (high GLP-1R density). The following applies: for EC50: CHO GLP-1R Clone H6, cAMP HTRF, geometric mean; for Emax: read-out: Assay 1 Emax (%), CHO GLP-1R Clone H6.
Where [3] appears, read: CHO GLP-1R Clone C6, relative to saturating concentration of full agonist GLP-1 (1 μM), arithmetic mean.
Setting [4] is: relative to saturating concentration of full agonist GLP-1 (1 μM), arithmetic mean.

One may read the EC50 as the midpoint of the concentration-response curve. Broadly, the Emax is the greatest response seen or fitted, relative to the assay's reference.

human GLP-1R (Homo sapiens, UniProt P43220, G168S), sequence (P43220 24-463 G168S limits assumed): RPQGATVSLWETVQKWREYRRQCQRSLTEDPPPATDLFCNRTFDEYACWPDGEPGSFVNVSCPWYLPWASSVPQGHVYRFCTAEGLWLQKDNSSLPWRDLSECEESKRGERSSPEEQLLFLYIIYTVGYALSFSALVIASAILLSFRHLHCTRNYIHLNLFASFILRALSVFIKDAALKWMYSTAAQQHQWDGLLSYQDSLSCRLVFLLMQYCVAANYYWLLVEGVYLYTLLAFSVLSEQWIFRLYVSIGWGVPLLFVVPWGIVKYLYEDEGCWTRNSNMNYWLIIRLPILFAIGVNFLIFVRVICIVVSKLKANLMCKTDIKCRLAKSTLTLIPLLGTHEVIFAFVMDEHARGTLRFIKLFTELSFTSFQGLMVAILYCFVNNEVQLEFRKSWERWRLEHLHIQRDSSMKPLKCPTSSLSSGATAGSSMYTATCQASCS
human GLP-1R (Homo sapiens (Human), UniProt P43220, L260F), sequence (P43220 24-463 L260F): as the sequence (P43220 24-463 G168S limits assumed) above, with S145G, L237F counted along it

As to `O=C(O)c1ccc2nc(CN3CCC(c4cccc(OCc5ccc(Cl)cc5F)n4)CC3)n(Cc3ccon3)c2c1` [Example 11A-69, 2-[(4-{6-[(4-chloro-2-fluorobenzyl)oxy]pyridin-2-yl}piperidin-1-yl)methyl]-1-(1,2-oxazol-3-ylmethyl)-1H-benzimidazole-6-carboxylic acid], the EC50 amounted to 21 nM on human GLP-1R [1] and 5.3 nM on human GLP-1R [2] (read-out: Assay 1 EC50). Moreover, the figures for the Emax at human GLP-1R [1] (setting [3]) and on human GLP-1R [2] (setting [4]) were 84% and 76%, respectively.

`Cn1cncc1Cn1c(CN2CCC(c3cccc(OCc4ccc(Cl)cc4F)n3)CC2)nc2ccc(C(=O)O)cc21` [Example 11A-70, 2-[(4-{6-[(4-chloro-2-fluorobenzyl)oxy]pyridin-2-yl}piperidin-1-yl)methyl]-1-[(1-methyl-1H-imidazol-5-yl)methyl]-1H-benzimidazole-6-carboxylic acid]: the EC50 stood at 10 nM at human GLP-1R [1] and 0.7 nM at human GLP-1R [2] (read-out: Assay 1 EC50). For the same molecule, the Emax on human GLP-1R [1] (setting [3]) amounted to 89%; at human GLP-1R [2] (setting [4]) it was 86%.

In the case of `Cn1cnnc1Cn1c(CN2CCC(c3cccc(OCc4ccc(Cl)cc4F)n3)CC2)nc2ccc(C(=O)O)cc21` [Example 11A-71, 2-[(4-{6-[(4-chloro-2-fluorobenzyl)oxy]pyridin-2-yl}piperidin-1-yl)methyl]-1-[(4-methyl-4H-1,2,4-triazol-3-yl)methyl]-1H-benzimidazole-6-carboxylic acid], the EC50 worked out at 570 nM on human GLP-1R [1] and 30 nM on human GLP-1R [2] (read-out: Assay 1 EC50). Also, the Emax at human GLP-1R [1] (setting [3]) was 93%; at human GLP-1R [2] (setting [4]) it was 73%.

Turning to `Cn1nncc1Cn1c(CN2CCC(c3cccc(OCc4ccc(Cl)cc4F)n3)CC2)nc2ccc(C(=O)O)cc21` [Example 11A-72, 2-[(4-{6-[(4-chloro-2-fluorobenzyl)oxy]pyridin-2-yl}piperidin-1-yl)methyl]-1-[(1-methyl-1H-1,2,3-triazol-5-yl]methyl]-1H-benzimidazole-6-carboxylic acid], the EC50 was determined as 41 nM on human GLP-1R [1] and 5 nM at human GLP-1R [2] (read-out: Assay 1 EC50). Also, the results for the Emax at human GLP-1R [1] (setting [3]) and at human GLP-1R [2] (setting [4]) were 77% and 82%, respectively.

As for `O=C(O)c1ccc2nc(CN3CCC(c4cccc(OCc5ccc(Cl)cc5F)n4)CC3)n(CCC(F)(F)F)c2c1` [Example 11A-73, 2-[(4-{6-[(4-chloro-2-fluorobenzyl)oxy]pyridin-2-yl}piperidin-1-yl)methyl]-1-(3,3,3-trifluoropropyl)-1H-benzimidazole-6-carboxylic acid], the EC50 at human GLP-1R [1] was found to be 5300 nM; at human GLP-1R [2] (read-out: Assay 1 EC50), 150 nM. Besides, the results for the Emax on human GLP-1R [1] (setting [3]) and on human GLP-1R [2] (setting [4]) were 80% and 68%, respectively.

For the molecule `CC[C@H]1CN(c2cccc(OCc3ccc(Cl)cc3F)n2)CCN1Cc1nc2ccc(C(=O)O)cc2n1CCOC` [Example 12A-07, 2-{[(2S)-4-{6-[(4-chloro-2-fluorobenzyl)oxy]pyridin-2-yl}-2-ethylpiperazin-1-yl]methyl}-1-(2-methoxyethyl)-1H-benzimidazole-6-carboxylic acid], the results for the EC50 on human GLP-1R [1] and at human GLP-1R [2] (read-out: Assay 1 EC50) were 1200 nM and 37 nM, respectively. In addition, the maximal response (Emax) is 83% on human GLP-1R [1] (setting [3]) and 69% at human GLP-1R [2] (setting [4]).

For the molecule `COCCn1c(CN2CCN(c3cccc(OCc4ccc(C#N)cc4)n3)C[C@@H]2C)nc2ccc(C(=O)O)cc21` [Example 12A-08, 2-{[(2S)-4-{6-[(4-cyanobenzyl)oxy]pyridin-2-yl}-2-methylpiperazin-1-yl]methyl}-1-(2-methoxyethyl)-1H-benzimidazole-6-carboxylic acid], the EC50 at human GLP-1R [1] came to 150 nM; at human GLP-1R [2] (read-out: Assay 1 EC50), 6.1 nM. The Emax on human GLP-1R [1] (setting [3]) is 97%; on human GLP-1R [2] (setting [4]) it was 89%.

Regarding `COCCn1c(CN2CCN(c3cccc(OCc4ccc(Cl)cc4F)n3)C[C@@H]2CO)nc2ccc(C(=O)O)cc21` [Example 12A-09], the EC50 was 540 nM at human GLP-1R [1] and 21 nM at human GLP-1R [2] (read-out: Assay 1 EC50). Further, at human GLP-1R [1] (setting [3]), the “Assay 2 Emax (%)” value is listed as 80%. Also, at human GLP-1R [2] (CHO GLP-1R Clone H6, relative to saturating concentration of full agonist GLP-1 (1 μM), arithmetic mean), the “Assay 1 Emax (%)” value came to 79%.

`COCCn1c(CN2CCN(c3cccc(OCc4ccc(Cl)cc4F)n3)C[C@@H]2C)nc2ccc(C(=O)O)cc21` [Example 12A-10, 2-{[(2S)-4-{6-[(4-chloro-2-fluorobenzyl)oxy]pyridin-2-yl}-2-methylpiperazin-1-yl]methyl]-1-(2-methoxyethyl)-1H-benzimidazole-6-carboxylic acid]: the EC50 on human GLP-1R [1] was determined as 170 nM; on human GLP-1R [2] (read-out: Assay 1 EC50), 6.9 nM. Besides, the Emax at human GLP-1R [1] (setting [3]) was 96%; at human GLP-1R [2] (setting [4]) it was 78%.

Turning to `COCCn1c(CN2CCN(c3cccc(OCc4ccc(Cl)cc4F)n3)C[C@H]2C)nc2ccc(C(=O)O)cc21` [Example 12A-11, 2-{[(2R)-4-{6-[(4-chloro-2-fluorobenzyl)oxy]pyridin-2-yl}-2-methylpiperazin-1-yl]methyl}-1-(2-methoxyethyl)-1H-benzimidazole-6-carboxylic acid], the EC50 amounted to 2100 nM on human GLP-1R [1] and 54 nM on human GLP-1R [2] (Assay 1 EC50 (nM)). Further, the Emax on human GLP-1R [1] (setting [3]) was 100%; at human GLP-1R [2] (setting [4]) it was 81%.
